EC50 data for 9 compounds are collected here from patent US20180371044A1, “PEPTIDOMIMETIC MACROCYCLES” (Aileron Therapeutics, Inc., priority 2015, published 2018).

This assay deals with T1, human GHRH receptor (hGHRHR) (Homo sapiens, UniProt Q02643).
T1 construct: expressed in transfected cells; host or cells: Human 293 cells
T1 sequence (Q02643 23-423): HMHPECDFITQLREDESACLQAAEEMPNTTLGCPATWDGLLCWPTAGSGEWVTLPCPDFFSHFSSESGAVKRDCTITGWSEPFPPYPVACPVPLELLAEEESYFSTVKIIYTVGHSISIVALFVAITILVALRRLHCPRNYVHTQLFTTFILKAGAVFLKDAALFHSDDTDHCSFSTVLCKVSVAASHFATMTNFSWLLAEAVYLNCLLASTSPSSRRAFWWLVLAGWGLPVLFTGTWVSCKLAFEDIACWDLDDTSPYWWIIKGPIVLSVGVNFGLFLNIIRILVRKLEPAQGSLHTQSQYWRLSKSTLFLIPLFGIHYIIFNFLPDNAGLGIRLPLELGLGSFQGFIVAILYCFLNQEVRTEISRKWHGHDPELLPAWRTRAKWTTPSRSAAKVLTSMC
Description: GHRHR agonism measured by cAMP (HTRF) in human 293 cells expressing hGHRHR.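 Also: receptor expressed transiently or stably, cells stimulated in serum-free medium, EC50 from a non-linear dose-response fit, maximal response defined by reference GHRH stimulation.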 In kind it is cell-based. The note with it: 30 min at RT. (In TR-FRET formats the signal depends on donor and acceptor labels being close together.)

Where a SMILES comes first, the peptide text is derived from it. Bridges are numbered along the chain shown (N, C = ends). [ ]: non-standard residue; d: D form. NMeY = CN[C@@H](Cc1ccc(O)cc1)C(=O)O; R8 = C=CCCCCCC[C@@](C)(N)C(=O)O; S5 = C=CCCC[C@](C)(N)C(=O)O; Nle = CCCC[C@H](N)C(=O)O; Abu = CC[C@H](N)C(=O)O; Aib = CC(C)(N)C(=O)O Bounds are passed on as bounds.

Consider `CCCC[C@H](NC(=O)[C@@H](NC(=O)[C@H](CC(=O)O)NC(=O)C(C)(C)NC(=O)[C@H](CC(C)C)NC(=O)[C@H](C)NC(=O)[C@H](CCCCN)NC(=O)[C@H](CCCNC(=N)N)NC(=O)[C@H](C)NC(=O)C(C)(C)NC(=O)[C@H](CC(C)C)NC(=O)[C@H](CCC(N)=O)NC(=O)[C@H](C)NC(=O)[C@H](CC(C)C)NC(=O)[C@@H](NC(=O)[C@H](CCCCN)NC(=O)[C@H](CCCNC(=N)N)NC(=O)[C@H](Cc1ccc(O)cc1)NC(=O)[C@H](CO)NC(=O)C(C)(C)NC(=O)[C@@H](NC(=O)[C@H](Cc1ccccc1)NC(=O)[C@@H](NC(=O)[C@H](C)NC(=O)[C@H](CC(=O)O)NC(=O)[C@H](C)NC(=O)[C@H](Cc1ccc(O)cc1)NC)[C@@H](C)CC)[C@@H](C)O)C(C)C)[C@@H](C)CC)C(=O)N[C@@H](CO)C(=O)N[C@@H](CCCNC(=N)N)C(N)=O` [SP-55] (H-[NMeY]ADAIFT[Aib]SYRKVLAQL[Aib]ARKAL[Aib]DI[Nle]SR-NH2), for which the EC50 – broadly, the concentration that produces a half-maximal response – was in the range of 1 to 10 nM.
To `CCCC[C@H](NC(=O)[C@@H](NC(=O)[C@H](CC(=O)O)NC(=O)[C@H](CCC(N)=O)NC(=O)[C@H](CC(C)C)NC(=O)[C@H](C)NC(=O)[C@H](CCCCN)NC(=O)[C@H](CCCNC(=N)N)NC(=O)[C@H](C)NC(=O)[C@H](CO)NC(=O)[C@H](CC(C)C)NC(=O)[C@H](CCC(N)=O)NC(=O)[C@H](CC)NC(=O)[C@H](CC(C)C)NC(=O)[C@@H](NC(=O)[C@H](CCCCN)NC(=O)[C@H](CCCNC(=N)N)NC(=O)[C@H](Cc1ccc(O)cc1)NC(=O)[C@H](CO)NC(=O)[C@H](C)NC(=O)[C@@H](NC(=O)[C@H](Cc1ccccc1)NC(=O)[C@@H](NC(=O)[C@H](C)NC(=O)[C@H](CC(=O)O)NC(=O)[C@H](C)NC(=O)[C@H](Cc1ccc(O)cc1)NC)[C@@H](C)CC)[C@@H](C)O)C(C)C)[C@@H](C)CC)C(=O)N[C@@H](CO)C(=O)N[C@@H](CCCNC(=N)N)C(N)=O` [SP-44] (H-[NMeY]ADAIFTASYRKVL[Abu]QLSARKALQDI[Nle]SR-NH2) belongs 1 to 10 nM.
To `CCCC[C@H](NC(=O)[C@@H](NC(=O)[C@H](CC(=O)O)NC(=O)[C@H](CCC(N)=O)NC(=O)[C@H](CC(C)C)NC(=O)[C@H](C)NC(=O)[C@]1(C)CCCC=CCCCCCC[C@@](C)(NC(=O)[C@@H](NC(=O)[C@H](CCCCN)NC(=O)[C@H](CCCNC(=N)N)NC(=O)[C@H](Cc2ccc(O)cc2)NC(=O)[C@H](CO)NC(=O)[C@H](C)NC(=O)[C@@H](NC(=O)[C@H](Cc2ccccc2)NC(=O)[C@@H](NC(=O)[C@H](C)NC(=O)[C@H](CC(=O)O)NC(=O)[C@H](C)NC(=O)[C@H](Cc2ccc(O)cc2)NC)[C@@H](C)CC)[C@@H](C)O)C(C)C)C(=O)N[C@@H](C)C(=O)N[C@@H](CCC(N)=O)C(=O)N[C@@H](CC(C)C)C(=O)N[C@@H](CO)C(=O)N[C@@H](C)C(=O)N[C@@H](CCCNC(=N)N)C(=O)N1)[C@@H](C)CC)C(=O)N[C@@H](CO)C(=O)N[C@@H](CCCNC(=N)N)C(N)=O` [SP-26] (H-[NMeY]ADAIFTASYRKV[R8]AQLSAR[S5]ALQDI[Nle]SR-NH2; staple 14-21) belongs 10 to 25 nM.
Compound `CCCC[C@H](NC(=O)[C@@H](NC(=O)[C@H](CC(=O)O)NC(=O)[C@H](CCC(N)=O)NC(=O)[C@H](CC(C)C)NC(=O)[C@H](C)NC(=O)[C@H](CCCCN)NC(=O)[C@H](CCCNC(=N)N)NC(=O)[C@H](C)NC(=O)[C@]1(C)CCCC=CCCC[C@](C)(NC(=O)[C@@H](NC(=O)[C@H](CCCCN)NC(=O)[C@H](CCCNC(=N)N)NC(=O)[C@H](Cc2ccc(O)cc2)NC(=O)[C@H](CO)NC(=O)[C@H](C)NC(=O)[C@@H](NC(=O)[C@H](Cc2ccccc2)NC(=O)[C@@H](NC(=O)[C@H](C)NC(=O)[C@H](CC(=O)O)NC(=O)[C@H](C)NC(=O)[C@H](Cc2ccc(O)cc2)NC)[C@@H](C)CC)[C@@H](C)O)C(C)C)C(=O)N[C@@H](C)C(=O)N[C@@H](CCC(N)=O)C(=O)N[C@@H](CC(C)C)C(=O)N1)[C@@H](C)CC)C(=O)N[C@@H](CO)C(=O)N[C@@H](CCCNC(=N)N)C(N)=O` [SP-13] (H-[NMeY]ADAIFTASYRKV[S5]AQL[S5]ARKALQDI[Nle]SR-NH2; staple 14-18) gave a 50% effective concentration (EC50) of 10 to 25 nM.
In the case of `CCCC[C@H](NC(=O)[C@@H](NC(=O)[C@H](CC(=O)O)NC(=O)[C@H](CCC(N)=O)NC(=O)[C@H](CC(C)C)NC(=O)[C@H](CC(C)C)NC(=O)[C@H](CCCCN)NC(=O)[C@H](CCCNC(=N)N)NC(=O)[C@]1(C)CCCC=CCCCCCC[C@@](C)(NC(=O)[C@H](CCCNC(=N)N)NC(=O)[C@H](Cc2ccc(O)cc2)NC(=O)[C@H](CO)NC(=O)[C@H](CC(N)=O)NC(=O)[C@@H](NC(=O)[C@H](Cc2ccccc2)NC(=O)[C@@H](NC(=O)[C@H](C)NC(=O)[C@H](CC(=O)O)NC(=O)[C@@H](C)NC(=O)[C@@H](N)Cc2ccc(O)cc2)[C@@H](C)CC)[C@@H](C)O)C(=O)N[C@@H](C(C)C)C(=O)N[C@@H](CC(C)C)C(=O)NCC(=O)N[C@@H](CCC(N)=O)C(=O)N[C@@H](CC(C)C)C(=O)N[C@@H](CO)C(=O)N1)[C@@H](C)CC)C(=O)N[C@@H](CO)C(=O)N[C@@H](CCCNC(=N)N)C(N)=O` [SP-4] (H-Y[dA]DAIFTNSYR[R8]VLGQLS[S5]RKLLQDI[Nle]SR-NH2; staple 12-19), the EC50 lay in the range of 10 to 25 nM.
The compound `CCCC[C@H](NC(=O)[C@@H](NC(=O)[C@H](CC(=O)O)NC(=O)[C@H](CCC(N)=O)NC(=O)[C@H](CC(C)C)NC(=O)[C@]1(C)CCCC=CCCCCCC[C@@](C)(NC(=O)[C@H](CC(C)C)NC(=O)[C@@H](NC(=O)[C@H](CCCCN)NC(=O)[C@H](CCCNC(=N)N)NC(=O)[C@H](Cc2ccc(O)cc2)NC(=O)[C@H](CO)NC(=O)[C@H](C)NC(=O)[C@@H](NC(=O)[C@H](Cc2ccccc2)NC(=O)[C@@H](NC(=O)[C@H](C)NC(=O)[C@H](CC(=O)O)NC(=O)[C@H](C)NC(=O)[C@H](Cc2ccc(O)cc2)NC)[C@@H](C)CC)[C@@H](C)O)C(C)C)C(=O)N[C@@H](CCC(N)=O)C(=O)N[C@@H](CC(C)C)C(=O)N[C@@H](CO)C(=O)N[C@@H](C)C(=O)N[C@@H](CCCNC(=N)N)C(=O)N[C@@H](CCCCN)C(=O)N1)[C@@H](C)CC)C(=O)N[C@@H](CO)C(=O)N[C@@H](CCCNC(=N)N)C(N)=O` [SP-27] (H-[NMeY]ADAIFTASYRKVL[R8]QLSARK[S5]LQDI[Nle]SR-NH2; staple 15-22) returned a concentration for a half-maximal effect (EC50) of 1 to 10 nM.
For `CCCC[C@H](NC(=O)[C@@H](NC(=O)[C@H](CC(=O)O)NC(=O)[C@H](CCC(N)=O)NC(=O)[C@H](CC(C)C)NC(=O)[C@H](CC(C)C)NC(=O)[C@H](CCCCN)NC(=O)[C@H](CCCNC(=N)N)NC(=O)[C@H](C)NC(=O)[C@H](CO)NC(=O)[C@H](CC(C)C)NC(=O)[C@H](CCC(N)=O)NC(=O)[C@H](C)NC(=O)[C@H](CC(C)C)NC(=O)[C@@H](NC(=O)[C@H](CCCCN)NC(=O)[C@H](CCCNC(=N)N)NC(=O)[C@H](Cc1ccc(O)cc1)NC(=O)[C@H](CO)NC(=O)[C@H](CC(N)=O)NC(=O)[C@@H](NC(=O)[C@H](Cc1ccccc1)NC(=O)[C@@H](NC(=O)[C@H](C)NC(=O)[C@H](CC(=O)O)NC(=O)[C@H](C)NC(=O)[C@@H](N)Cc1ccc(O)cc1)[C@@H](C)CC)[C@@H](C)O)C(C)C)[C@@H](C)CC)C(=O)N[C@@H](CO)C(=O)N[C@@H](CCCNC(=N)N)C(N)=O` [SP-5] (H-YADAIFTNSYRKVLAQLSARKLLQDI[Nle]SR-NH2) the value was 1 to 10 nM; for `CCCC[C@H](NC(=O)[C@@H](NC(=O)[C@H](CC(=O)O)NC(=O)[C@H](CCC(N)=O)NC(=O)[C@H](CC(C)C)NC(=O)[C@H](C)NC(=O)[C@H](CCCCN)NC(=O)[C@H](CCCNC(=N)N)NC(=O)[C@H](C)NC(=O)[C@H](CO)NC(=O)[C@H](CC(C)C)NC(=O)[C@H](CCC(N)=O)NC(=O)[C@H](C)NC(=O)[C@H](CC(C)C)NC(=O)[C@@H](NC(=O)[C@H](CCCCN)NC(=O)[C@H](CCCNC(=N)N)NC(=O)[C@H](Cc1ccc(O)cc1)NC(=O)[C@H](CO)NC(=O)[C@H](C)NC(=O)[C@@H](NC(=O)[C@H](Cc1ccccc1)NC(=O)[C@@H](NC(=O)[C@H](C)NC(=O)[C@H](CC(=O)O)NC(=O)[C@H](C)NC(=O)[C@H](Cc1ccc(O)cc1)NC)[C@@H](C)CC)[C@@H](C)O)C(C)C)[C@@H](C)CC)C(=O)N[C@@H](CO)C(=O)N[C@@H](CCCNC(=N)N)C(N)=O` [SP-35] (H-[NMeY]ADAIFTASYRKVLAQLSARKALQDI[Nle]SR-NH2), at most 1 nM; for `CCCC[C@H](NC(=O)[C@@H](NC(=O)[C@H](C)NC(=O)[C@H](CCC(N)=O)NC(=O)[C@H](CC(C)C)NC(=O)[C@H](C)NC(=O)[C@H](CCCCN)NC(=O)[C@H](CCCNC(=N)N)NC(=O)[C@]1(C)CCCC=CCCCCCC[C@@](C)(NC(=O)[C@H](CCCNC(=N)N)NC(=O)[C@H](Cc2ccc(O)cc2)NC(=O)[C@H](CO)NC(=O)[C@H](C)NC(=O)[C@@H](NC(=O)[C@H](Cc2ccccc2)NC(=O)[C@@H](NC(=O)[C@H](C)NC(=O)[C@H](CC(=O)O)NC(=O)[C@H](C)NC(=O)[C@H](Cc2ccc(O)cc2)NC)[C@@H](C)CC)[C@@H](C)O)C(=O)N[C@@H](C(C)C)C(=O)N[C@@H](CC(C)C)C(=O)N[C@@H](C)C(=O)N[C@@H](CCC(N)=O)C(=O)N[C@@H](CC(C)C)C(=O)N[C@@H](CO)C(=O)N1)[C@@H](C)CC)C(=O)N[C@@H](CO)C(=O)N[C@@H](CCCNC(=N)N)C(N)=O` [SP-61] (H-[NMeY]ADAIFTASYR[R8]VLAQLS[S5]RKALQAI[Nle]SR-NH2; staple 12-19), 10 to 25 nM.
